Values quoted from earlier work as cited in patent publication US20200268761A1 (CIPLA LIMITED, priority 2017, published 2020).

Legend:
p-glycoprotein = p-glycoprotein (Homo sapiens, UniProt P08183)
CYP3A4 = CYP3A4 (Homo sapiens, UniProt P08684); conditions: major drug metabolizing enzyme
Chain of CYP3A4 (P08684 whole entry, species assumed): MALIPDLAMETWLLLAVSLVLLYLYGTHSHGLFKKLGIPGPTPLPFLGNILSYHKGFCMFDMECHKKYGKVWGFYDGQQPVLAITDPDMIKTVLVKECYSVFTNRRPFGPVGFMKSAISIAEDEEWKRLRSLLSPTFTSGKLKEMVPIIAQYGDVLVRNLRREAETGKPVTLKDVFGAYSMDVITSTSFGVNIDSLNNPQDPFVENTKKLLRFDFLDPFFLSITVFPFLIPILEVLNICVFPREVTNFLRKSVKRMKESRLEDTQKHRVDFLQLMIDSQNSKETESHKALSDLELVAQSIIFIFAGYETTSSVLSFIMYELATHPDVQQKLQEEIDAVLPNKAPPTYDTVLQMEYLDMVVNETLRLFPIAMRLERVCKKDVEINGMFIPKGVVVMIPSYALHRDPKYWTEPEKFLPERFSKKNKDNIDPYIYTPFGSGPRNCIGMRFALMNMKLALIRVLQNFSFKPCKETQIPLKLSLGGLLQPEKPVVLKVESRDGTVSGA

Chain of p-glycoprotein (P08183 whole entry): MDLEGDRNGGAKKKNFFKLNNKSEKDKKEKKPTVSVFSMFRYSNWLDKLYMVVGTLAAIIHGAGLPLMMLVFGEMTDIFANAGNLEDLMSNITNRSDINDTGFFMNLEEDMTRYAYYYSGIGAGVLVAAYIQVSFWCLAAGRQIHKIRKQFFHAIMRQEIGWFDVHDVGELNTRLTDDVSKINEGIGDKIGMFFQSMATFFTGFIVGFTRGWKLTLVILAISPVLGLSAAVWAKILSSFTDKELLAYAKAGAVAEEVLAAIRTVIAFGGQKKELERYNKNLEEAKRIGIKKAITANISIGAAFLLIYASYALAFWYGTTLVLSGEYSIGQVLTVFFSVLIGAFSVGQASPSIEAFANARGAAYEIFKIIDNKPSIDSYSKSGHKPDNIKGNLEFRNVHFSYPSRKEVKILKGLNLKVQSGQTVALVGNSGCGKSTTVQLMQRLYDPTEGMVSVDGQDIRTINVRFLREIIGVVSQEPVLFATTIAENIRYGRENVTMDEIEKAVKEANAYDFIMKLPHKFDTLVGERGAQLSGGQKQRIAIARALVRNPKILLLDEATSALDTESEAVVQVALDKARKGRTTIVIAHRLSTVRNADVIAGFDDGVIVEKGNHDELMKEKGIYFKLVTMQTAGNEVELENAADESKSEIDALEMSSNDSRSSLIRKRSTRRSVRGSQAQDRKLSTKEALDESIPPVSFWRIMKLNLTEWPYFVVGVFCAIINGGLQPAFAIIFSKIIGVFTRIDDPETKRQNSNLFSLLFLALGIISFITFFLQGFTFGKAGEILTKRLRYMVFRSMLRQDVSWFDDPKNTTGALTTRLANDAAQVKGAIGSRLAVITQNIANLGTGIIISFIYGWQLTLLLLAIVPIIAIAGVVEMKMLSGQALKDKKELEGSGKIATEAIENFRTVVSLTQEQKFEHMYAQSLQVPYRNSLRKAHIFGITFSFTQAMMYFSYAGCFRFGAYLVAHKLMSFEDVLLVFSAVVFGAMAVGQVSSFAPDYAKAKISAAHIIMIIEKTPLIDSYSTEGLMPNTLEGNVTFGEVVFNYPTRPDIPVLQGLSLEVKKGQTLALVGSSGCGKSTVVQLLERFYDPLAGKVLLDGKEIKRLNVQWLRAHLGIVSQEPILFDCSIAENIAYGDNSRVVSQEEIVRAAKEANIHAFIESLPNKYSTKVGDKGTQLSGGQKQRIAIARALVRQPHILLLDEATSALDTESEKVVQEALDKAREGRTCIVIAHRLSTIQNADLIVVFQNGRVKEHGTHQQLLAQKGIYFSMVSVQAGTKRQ

inhibition of p-glycoprotein (p-glycoprotein) | inhibition of CYP3A4 (CYP3A4) | solubility in HCl at pH 1.2 (HCl, pH 1.2) | solubility in N,N-dimethylformamide, tetrahydrofuran and dichloromethane (N,N-dimethylformamide, tetrahydrofuran, dichloromethane) | solubility in acetone and methanol (acetone, methanol) | solubility in ethyl acetate, ethanol and acetonitrile (ethyl acetate, ethanol, acetonitrile) | solubility in non-polar solvents (non-polar solvents such as hexane and heptanes) | solubility in water (water, ibrutinib base) | Structure (SMILES)
inhibits | inhibits | – | – | – | – | – | – | O=C(/C=C/C=C/c1ccc2c(c1)OCO2)N1CCCCC1 [Piperine, (E.E.) 1˜[5,3-benzodioxyl-5-yl)-1-oxo-2,4-pentadienyl-piperidine]
– | – | slightly soluble | freely soluble | soluble | sparingly soluble | practically insoluble | practically insoluble | C=CC(=O)N1CCC[C@@H](n2nc(-c3ccc(Oc4ccccc4)cc3)c3c(N)ncnc32)C1 [Ibrutinib]
